Measured values as given in ChEMBL document CHEMBL3739404, “Arylsulfonamide derivatives of (aryloxy)ethylpiperidines as selective 5-HT7receptor antagonists and their psychotropic properties” (Medchemcomm, 2015).
Active and inactive are the calls of the source. No cut-off for these calls is given here.

Columns and labels:
HEK293 = experiment: Selectivity ratio of Ki for human 5-HT1A receptor to Ki for human 5-HT7B receptor expressed in HEK293 cells; format: cell-based
[1] = target: T1, 5-hydroxytryptamine receptor 1A (Homo sapiens, UniProt P08908); experiment: Displacement of [3H]-8-OH-DPAT from human serotonin 5-HT1A receptor expressed in HEK293 cells after 1 hr by microplate reader based assay; format: cell-based
T1 sequence (P08908 whole entry): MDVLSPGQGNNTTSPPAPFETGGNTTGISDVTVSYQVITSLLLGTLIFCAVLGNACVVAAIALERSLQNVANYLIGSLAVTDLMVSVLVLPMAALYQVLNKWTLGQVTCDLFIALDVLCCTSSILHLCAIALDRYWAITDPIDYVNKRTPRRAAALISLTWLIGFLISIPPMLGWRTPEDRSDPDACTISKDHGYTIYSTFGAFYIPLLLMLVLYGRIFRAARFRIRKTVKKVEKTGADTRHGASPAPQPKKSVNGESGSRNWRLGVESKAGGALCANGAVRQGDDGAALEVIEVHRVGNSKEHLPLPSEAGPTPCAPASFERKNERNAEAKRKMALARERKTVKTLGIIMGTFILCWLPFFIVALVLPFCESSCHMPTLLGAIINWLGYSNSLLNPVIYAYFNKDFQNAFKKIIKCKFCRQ

[2] = target: T2, 5-hydroxytryptamine receptor 7 (Homo sapiens, UniProt P34969); experiment: Displacement of [3H]-5-carboxyamidotryptamine from human serotonin 5-HT7B receptor expressed in HEK293 cells after 1 hr by microplate reader based assay; format: cell-based
T2 sequence (P34969 whole entry): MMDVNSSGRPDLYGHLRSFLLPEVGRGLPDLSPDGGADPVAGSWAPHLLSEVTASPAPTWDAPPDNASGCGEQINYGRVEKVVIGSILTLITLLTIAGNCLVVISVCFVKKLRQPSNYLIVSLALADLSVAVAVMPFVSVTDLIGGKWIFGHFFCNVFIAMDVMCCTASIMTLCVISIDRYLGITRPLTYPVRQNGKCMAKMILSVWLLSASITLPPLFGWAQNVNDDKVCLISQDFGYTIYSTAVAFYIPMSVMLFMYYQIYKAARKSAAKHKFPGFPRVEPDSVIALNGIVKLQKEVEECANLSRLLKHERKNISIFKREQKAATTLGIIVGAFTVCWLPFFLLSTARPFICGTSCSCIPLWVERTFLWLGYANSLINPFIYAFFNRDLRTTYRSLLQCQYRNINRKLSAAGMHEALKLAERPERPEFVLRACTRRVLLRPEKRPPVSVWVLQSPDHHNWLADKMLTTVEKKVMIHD

[3] = target: 5-hydroxytryptamine receptor 6 (Homo sapiens, UniProt P50406); experiment: Displacement of [3H]-LSD from human serotonin 5-HT6 receptor expressed in HEK293 cells after 1 hr by microplate reader based assay; format: cell-based
Chain of 5-hydroxytryptamine receptor 6 (P50406 whole entry): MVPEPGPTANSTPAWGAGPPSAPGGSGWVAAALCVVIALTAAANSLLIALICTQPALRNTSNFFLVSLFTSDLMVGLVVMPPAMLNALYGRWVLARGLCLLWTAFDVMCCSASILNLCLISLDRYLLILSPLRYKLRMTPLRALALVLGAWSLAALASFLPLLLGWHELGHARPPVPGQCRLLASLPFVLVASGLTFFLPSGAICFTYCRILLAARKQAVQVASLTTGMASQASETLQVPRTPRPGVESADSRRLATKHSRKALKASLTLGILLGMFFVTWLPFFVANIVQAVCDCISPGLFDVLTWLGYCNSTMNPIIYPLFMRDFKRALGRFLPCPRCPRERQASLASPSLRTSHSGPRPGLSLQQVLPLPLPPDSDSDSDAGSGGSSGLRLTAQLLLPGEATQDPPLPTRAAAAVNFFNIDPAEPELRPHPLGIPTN

D(2) dopamine receptor = D(2) dopamine receptor (Homo sapiens, UniProt P14416); experiment: Displacement of [3H]-Raclopride from human dopamine D2L receptor expressed in HEK293 cells after 1 hr by microplate reader based assay; format: cell-based
Chain of D(2) dopamine receptor (P14416 whole entry): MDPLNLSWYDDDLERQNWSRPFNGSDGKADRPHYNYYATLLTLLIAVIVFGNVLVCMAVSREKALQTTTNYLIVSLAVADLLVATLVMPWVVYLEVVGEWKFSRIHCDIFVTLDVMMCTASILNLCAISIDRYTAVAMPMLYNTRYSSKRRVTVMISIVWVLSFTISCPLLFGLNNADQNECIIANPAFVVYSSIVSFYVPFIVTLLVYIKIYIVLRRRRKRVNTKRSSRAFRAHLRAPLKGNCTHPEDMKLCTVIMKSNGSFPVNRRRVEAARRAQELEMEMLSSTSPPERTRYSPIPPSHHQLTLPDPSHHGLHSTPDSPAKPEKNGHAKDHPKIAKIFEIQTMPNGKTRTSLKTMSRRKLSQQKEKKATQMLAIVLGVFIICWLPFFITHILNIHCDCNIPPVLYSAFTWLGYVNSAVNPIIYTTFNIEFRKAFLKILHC

[4] = target: T2, 5-hydroxytryptamine receptor 7; experiment: Antagonist activity at human serotonin 5-HT7B receptor expressed in CHO cells assessed as inhibition of serotonin-induced cAMP production at 1 uM after 30 mins by HTRF assay relative to control; format: functional, cell-based
[5] = target: T3, Adrenergic receptor alpha-1 (Rattus norvegicus, UniProt P15823+P23944+P43140); experiment: Displacement of [3H]-Prazosin from alpha-1 adrenergic receptor in rat cerebral cortex after 1 hr by microplate reader based assay; format: tissue-based
T3 sequence (P15823 whole entry): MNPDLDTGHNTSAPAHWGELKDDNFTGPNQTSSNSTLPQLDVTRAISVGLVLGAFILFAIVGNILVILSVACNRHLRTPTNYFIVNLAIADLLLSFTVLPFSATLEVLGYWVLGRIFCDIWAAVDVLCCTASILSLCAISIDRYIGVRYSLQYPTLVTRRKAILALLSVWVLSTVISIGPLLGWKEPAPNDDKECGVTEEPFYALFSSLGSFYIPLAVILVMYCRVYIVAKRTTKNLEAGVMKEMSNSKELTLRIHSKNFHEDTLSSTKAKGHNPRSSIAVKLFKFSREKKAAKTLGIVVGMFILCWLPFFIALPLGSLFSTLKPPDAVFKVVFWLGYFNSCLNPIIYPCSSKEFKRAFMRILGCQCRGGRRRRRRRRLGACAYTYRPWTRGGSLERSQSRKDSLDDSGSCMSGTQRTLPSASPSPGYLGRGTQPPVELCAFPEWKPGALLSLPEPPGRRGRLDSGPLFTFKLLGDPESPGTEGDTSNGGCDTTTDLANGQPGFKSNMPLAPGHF
T3 sequence (P23944 whole entry): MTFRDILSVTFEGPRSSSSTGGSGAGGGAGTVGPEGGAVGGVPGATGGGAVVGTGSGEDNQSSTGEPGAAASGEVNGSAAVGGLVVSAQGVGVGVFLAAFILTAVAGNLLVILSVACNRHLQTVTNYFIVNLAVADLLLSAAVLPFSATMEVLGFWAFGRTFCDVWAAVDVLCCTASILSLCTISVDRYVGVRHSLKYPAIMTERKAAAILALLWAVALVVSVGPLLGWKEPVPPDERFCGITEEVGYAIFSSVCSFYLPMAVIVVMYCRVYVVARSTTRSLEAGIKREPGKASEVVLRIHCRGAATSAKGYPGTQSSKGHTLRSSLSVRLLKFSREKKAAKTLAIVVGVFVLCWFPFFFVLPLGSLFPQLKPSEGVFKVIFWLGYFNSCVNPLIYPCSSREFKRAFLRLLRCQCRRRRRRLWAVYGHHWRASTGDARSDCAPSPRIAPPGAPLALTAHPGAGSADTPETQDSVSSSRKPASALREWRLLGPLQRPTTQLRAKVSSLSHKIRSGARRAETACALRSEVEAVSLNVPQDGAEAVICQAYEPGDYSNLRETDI
T3 sequence (P43140 whole entry): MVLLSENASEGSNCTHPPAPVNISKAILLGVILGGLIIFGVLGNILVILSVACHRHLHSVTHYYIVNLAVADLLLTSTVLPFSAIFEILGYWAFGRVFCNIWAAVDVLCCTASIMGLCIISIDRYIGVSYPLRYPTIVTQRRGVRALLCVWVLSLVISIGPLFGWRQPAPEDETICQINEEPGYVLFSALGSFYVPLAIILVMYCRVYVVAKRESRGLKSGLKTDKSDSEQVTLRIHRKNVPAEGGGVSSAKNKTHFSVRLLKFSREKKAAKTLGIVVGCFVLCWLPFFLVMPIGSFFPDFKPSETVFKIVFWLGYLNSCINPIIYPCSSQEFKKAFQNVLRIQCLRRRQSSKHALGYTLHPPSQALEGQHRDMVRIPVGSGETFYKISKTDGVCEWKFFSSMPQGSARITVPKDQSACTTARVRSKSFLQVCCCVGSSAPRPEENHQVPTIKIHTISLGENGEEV

Rattus norvegicus = experiment: Pro-cognitive effect in Sprague-Dawley rat assessed as reduction in PCP-induced memory deficits administered ip 1 hr 15 mins before familiarization phase by novel object recognition test; format: functional, organism-based
[6] = target: Histamine H1 receptor (Homo sapiens) (UniProt P35367); experiment: Binding affinity to histamine H1 receptor (unknown origin) at 1 uM
Chain of Histamine H1 receptor (Homo sapiens) (P35367 whole entry): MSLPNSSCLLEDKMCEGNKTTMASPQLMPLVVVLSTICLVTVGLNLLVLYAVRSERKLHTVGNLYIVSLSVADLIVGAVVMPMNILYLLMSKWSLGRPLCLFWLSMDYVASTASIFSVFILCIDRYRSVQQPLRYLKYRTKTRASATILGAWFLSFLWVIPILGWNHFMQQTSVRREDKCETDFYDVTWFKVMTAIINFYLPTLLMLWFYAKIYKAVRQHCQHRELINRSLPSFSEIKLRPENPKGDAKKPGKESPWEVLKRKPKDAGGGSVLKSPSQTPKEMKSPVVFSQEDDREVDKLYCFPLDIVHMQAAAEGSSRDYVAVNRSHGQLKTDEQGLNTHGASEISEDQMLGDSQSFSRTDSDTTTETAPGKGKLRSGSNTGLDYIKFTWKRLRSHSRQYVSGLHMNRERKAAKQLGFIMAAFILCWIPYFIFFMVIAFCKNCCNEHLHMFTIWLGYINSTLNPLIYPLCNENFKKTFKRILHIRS

[7] = target: T2, 5-hydroxytryptamine receptor 7; experiment: Antagonist activity at human serotonin 5-HT7B receptor expressed in CHO cells assessed as inhibition of serotonin-induced cAMP production after 30 mins by HTRF assay; format: functional, cell-based
Mus musculus [8] = experiment: Toxicity in ip dosed albino Swiss mouse assessed as effect on spontaneous locomotor activity dosed 60 mins before test measured for 1 min 15 secs by M3 multichannel activity test; format: organism-based; conditions: in vivo
[9] = target: T4, Muscarinic acetylcholine receptor M1 (Homo sapiens) (UniProt P11229); experiment: Binding affinity to muscarinic acetylcholine receptor M1 (unknown origin) at 1 uM
T4 sequence (whole entry): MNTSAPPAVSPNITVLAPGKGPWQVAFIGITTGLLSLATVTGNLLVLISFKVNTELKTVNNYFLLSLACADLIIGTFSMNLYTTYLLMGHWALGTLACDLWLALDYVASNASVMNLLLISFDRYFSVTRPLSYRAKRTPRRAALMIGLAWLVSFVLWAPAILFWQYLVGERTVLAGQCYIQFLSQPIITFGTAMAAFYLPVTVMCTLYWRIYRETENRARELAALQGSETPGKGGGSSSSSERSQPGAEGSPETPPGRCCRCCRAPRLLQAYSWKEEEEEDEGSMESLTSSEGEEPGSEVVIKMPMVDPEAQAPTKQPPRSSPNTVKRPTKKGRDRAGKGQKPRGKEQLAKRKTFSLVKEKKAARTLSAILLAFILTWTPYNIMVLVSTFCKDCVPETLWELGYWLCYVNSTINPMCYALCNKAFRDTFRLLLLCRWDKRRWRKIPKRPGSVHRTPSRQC

Mus musculus [10] = experiment: Toxicity in albino Swiss mouse assessed as effect on spontaneous locomotor activity at 5 mg/kg, ip dosed 60 mins before test measured for 2 to 6 mins by M3 multichannel activity test; format: organism-based; conditions: in vivo
[11] = target: T2, 5-hydroxytryptamine receptor 7; experiment: Antagonist activity at human 5-HT7B receptor expressed in HEK293 cells assessed as inhibition of 5-carboxyamidotryptamine-induced cAMP production after 30 mins by TR-FRET assay; format: functional, cell-based
[12] = target: Beta-1 adrenergic receptor (Homo sapiens) (UniProt P08588); experiment: Binding affinity to beta-1 adrenergic receptor (unknown origin) at 1 uM
Chain of Beta-1 adrenergic receptor (Homo sapiens) (P08588 whole entry, looked up): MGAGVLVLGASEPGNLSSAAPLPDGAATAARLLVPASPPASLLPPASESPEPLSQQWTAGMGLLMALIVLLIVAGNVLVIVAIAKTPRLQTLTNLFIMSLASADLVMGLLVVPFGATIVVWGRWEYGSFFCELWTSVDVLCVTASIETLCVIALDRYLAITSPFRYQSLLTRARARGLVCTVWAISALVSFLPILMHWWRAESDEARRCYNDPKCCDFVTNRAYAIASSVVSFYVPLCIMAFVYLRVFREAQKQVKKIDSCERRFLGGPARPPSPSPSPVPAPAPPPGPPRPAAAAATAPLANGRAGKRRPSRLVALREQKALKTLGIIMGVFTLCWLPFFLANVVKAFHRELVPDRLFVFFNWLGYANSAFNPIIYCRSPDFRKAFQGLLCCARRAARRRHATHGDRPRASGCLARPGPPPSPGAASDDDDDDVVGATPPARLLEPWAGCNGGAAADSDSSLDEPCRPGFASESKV

Mus musculus [13] = experiment: Toxicity in albino Swiss mouse assessed as effect on spontaneous locomotor activity at 1.25 mg/kg, ip dosed 60 mins before test measured for 1 min 15 secs by M3 multichannel activity test; format: organism-based; conditions: in vivo
Mus musculus [14] = experiment: Anxiolytic-like activity in albino Swiss mouse assessed as increase in number of punished crossings at 1.25 mg/kg, ip dosed 60 mins before test by four plate test; format: functional
Mus musculus [15] = experiment: Toxicity in albino Swiss mouse assessed as effect on spontaneous locomotor activity at 2.5 mg/kg, ip dosed 60 mins before test measured for 2 to 6 mins by M3 multichannel activity test; format: organism-based; conditions: in vivo
Mus musculus [16] = experiment: Antidepressant-like activity in albino Swiss mouse assessed as reduction in immobility time at 10 mg/kg, ip dosed 60 mins before test by forced swim test; format: functional

| Ki [1] [nM] | Ki [2] [nM] | SMILES | Ratio Ki (HEK293) | also measured |
| --- | --- | --- | --- | --- |
| 368 | 36 | O=S(=O)(NC1CCN(CCOc2ccccc2-c2ccccc2)CC1)c1cccc(F)c1 | 10 |  |
| 321 | 19 | Cn1cc(S(=O)(=O)NC2CCN(CCOc3ccccc3-c3ccccc3)CC2)cn1 | 17 |  |
| 249 | 42 | CC(C)c1ccccc1OCCN1CCC(NS(=O)(=O)c2ccccc2)CC1 | 6 |  |
| 74 | 9 | O=S(=O)(NC1CCN(CCOc2ccccc2-c2ccccc2)CC1)c1cncc2ccccc12 | 8 |  |
| 190 |  | O=S(=O)(NC1CCN(CCOc2ccccc2-c2ccccc2)CC1)c1ccc(Cl)s1 | 16 |  |
| 178 | 8 | CC(C)c1ccccc1OCCN1CCC(NS(=O)(=O)c2cccc(Cl)c2)CC1 | 22 |  |
| 616 | 19 | CC(C)c1ccccc1OCCN1CCC(NS(=O)(=O)c2cnn(C)c2)CC1 | 32 | Ki [3]: 641 nM; Ki (D(2) dopamine receptor): 140 nM; inhibition [4]: 85%; Ki [5]: 389 nM |
| 373 | 28 | CC(C)c1ccccc1OCCN1CCC(NS(=O)(=O)c2ccc(F)c(F)c2)CC1 | 14 |  |
| 103 | 21 | CC(C)c1ccccc1OCCN1CCC(NS(=O)(=O)c2cncc3ccccc23)CC1 | 5 |  |
| 232 | 7 | CC(C)c1ccccc1OCCN1CCC(NS(=O)(=O)c2cccc3ncccc23)CC1 | 33 | Ki [3]: 233 nM; Ki (D(2) dopamine receptor): 104 nM; inhibition [4]: 96%; Ki [5]: 712 nM; Activity (Rattus norvegicus): Dose-dependent effect |
|  |  | CC(C)c1ccccc1OCCN1CCC(NS(=O)(=O)c2ccccc2F)CC1 |  | Activity [6]: < 74%; Kb [7]: 1 nM; Ki [3]: 240 nM; Ki (D(2) dopamine receptor): 51 nM; Ki [5]: 629 nM; Activity (Mus musculus [8]): Non-toxic; Activity [9]: < 10%; Activity (Mus musculus [10]): Non-toxic; Kb [11]: 12 nM; Activity (Rattus norvegicus): Dose-dependent effect; Activity [12]: < 10% |
| 234 | 6 | O=S(=O)(NC1CCN(CCOc2ccccc2-c2ccccc2)CC1)c1cccc(Cl)c1 | 33 | Ki [3]: 276 nM; Ki (D(2) dopamine receptor): 85 nM; inhibition [4]: 95%; Ki [5]: 2019 nM; Activity (Rattus norvegicus): Dose-dependent effect |
| 102 | 8 | O=S(=O)(NC1CCN(CCOc2ccccc2-c2ccccc2)CC1)c1cccc2ncccc12 | 13 |  |
| 183 | 7 | O=S(=O)(NC1CCN(CCOc2ccccc2-c2ccccc2)CC1)c1cc(F)ccc1F | 26 |  |
| 279 | 49 | O=S(=O)(NC1CCN(CCOc2ccccc2-c2ccccc2)CC1)c1ccccc1 | 6 |  |
| 278 | 200 | CC(C)CS(=O)(=O)NC1CCN(CCOc2ccccc2C(C)C)CC1 | 1 |  |
| 356 | 9 | CC(C)c1ccccc1OCCN1CCC(NS(=O)(=O)c2cccc(F)c2)CC1 |  | Activity [6]: < 74%; Ki [3]: 471 nM; Activity (Mus musculus [13]): Non-toxic; Ki (D(2) dopamine receptor): 102 nM; Activity (Mus musculus [14]): 75%; Activity (Mus musculus [15]): Non-toxic; Activity [9]: < 10%; Kb [11]: 26 nM; Activity (Rattus norvegicus): Dose-dependent effect; Activity [12]: < 10% |
|  |  | O=S(=O)(NC1CCN(CCOc2ccccc2-c2ccccc2)CC1)c1ccc(F)c(F)c1 | 45 | Ki [5]: 2541 nM |
| 208 | 8 | CC(C)c1ccccc1OCCN1CCC(NS(=O)(=O)c2cc(F)ccc2F)CC1 | 26 | Ki [3]: 324 nM; Ki (D(2) dopamine receptor): 147 nM; inhibition [4]: 84%; Activity (Mus musculus [16]): Active; Ki [5]: 589 nM |
| 455 | 24 | CC(C)c1ccccc1OCCN1CCC(NS(=O)(=O)c2ccc(Cl)s2)CC1 | 19 |  |
| 159 | 7 | O=S(=O)(NC1CCN(CCOc2ccccc2-c2ccccc2)CC1)c1ccc(F)cc1 | 23 |  |
| 74 | 44 | CC(C)CS(=O)(=O)NC1CCN(CCOc2ccccc2-c2ccccc2)CC1 | 2 |  |
